Drawing on patent US20110178104A1, “Anti-Heparin Compounds” (POLYMEDIX INC., priority 2010, published 2011), this text covers EC50 for 22 compounds.

“And” between values parts separate entries of the source, which are not always exact repeats. Identical values can stand only once.

For one assay, the system named is tinzaparin. The assay can be described thus: FXa amidolytic assay (Example 10), tinzaparin. The conditions noted are these: read-out: Tinzap FXa EC50; tinzaparin 0.1 ug/ml; human antithrombin, bovine Factor Xa.
The next assay concerns enoxaparin. Briefly: FXa amidolytic assay (Example 10), enoxaparin. The conditions noted are these: read-out: Enox FXa EC50; enoxaparin 0.1 ug/ml; human antithrombin, bovine Factor Xa.
Another assay relates to fondaparinux. Briefly: FXa amidolytic assay (Example 10), fondaparinux. The conditions noted are these: read-out: Fondap FXa EC50; fondaparinux 0.02 μg/mL; human antithrombin, bovine Factor Xa.
The subject of the next assay is Unfractionated heparin. Briefly: aPTT clotting assay, UFH 0.4 U/mL in plasma (Example 10). The assay is classed as biochemical. Conditions: unfractionated heparin 0.4 U/mL in plasma; aPTT clotting. On the procedure:
aPTT clotting Assay: Unfractionated heparin was mixed with plasma at a final concentration of 0.4 U/mL (or concentration which increases aPTT time to between 120 and 300 seconds). […] The ACL Elite Hemostasis analyzer (Beckman Coulter™) was used to add aPTT reagent (HemosIL SynthASil) to supplemented plasma. Clotting was initiated by addition of CaCl2 and time to clot was recorded.

Procedure for enoxaparin: (§1) Two μl of test agent are added (range between 0.01 and 23 ug/ml) and incubated for 5 minutes at 23° C. Bovine Factor Xa was added to a final concentration of 0.636 nkat/mL and incubated for a further 10 minutes at 23° C.
Procedure for fondaparinux: as §1
Procedure for tinzaparin: as §1

On to `COc1ccc(NC(=O)[C@@H](CCCNC(=N)N)NC(=O)c2cc(NC(=O)[C@@H](CCCNC(N)=O)NC(=O)c3cc(NC(=O)[C@@H](CCCNC(=N)N)NC(=O)c4cc(NC(=O)[C@H](N)CCCNC(=N)N)ccc4OC)ccc3OC)ccc2OC)cc1C(N)=O` [Compound 254], for which the concentration giving a half-maximal response (EC50) in the assay with tinzaparin came out at 97 nM; in the assay with enoxaparin, 93 nM; with fondaparinux, 448 nM; in the assay on Unfractionated heparin it was 1640 nM.

With `COc1ccc(NC(=O)[C@@H](CCCNC(N)=O)NC(=O)c2cc(NC(=O)[C@@H](CCCNC(=N)N)NC(=O)c3cc(NC(=O)[C@@H](CCCNC(=N)N)NC(=O)c4cc(NC(=O)[C@H](N)CCCNC(=N)N)ccc4OC)ccc3OC)ccc2OC)cc1C(N)=O` [Compound 255], the EC50 came to 119 nM in the assay with tinzaparin, 114 nM with enoxaparin, 473 nM in the assay on fondaparinux and 1720 nM in the assay with Unfractionated heparin.

`COc1ccc(NC(=O)[C@H](CCCCN)NC(=O)c2cc(NC(=O)[C@H](CCCCN)NC(=O)c3cc(NC(=O)[C@H](CCCCN)NC(=O)c4cc(NC(=O)[C@@H](N)CCCNC(N)=O)ccc4OC)ccc3OC)ccc2OC)cc1C(N)=O` [Compound 256]: the EC50 in the assay on tinzaparin was found to be 151 nM; in the assay with enoxaparin, 233 nM; in the assay with fondaparinux it was 2500 nM; with Unfractionated heparin, 1450 nM.

With `COc1ccc(NC(=O)[C@H](CCCCN)NC(=O)c2cc(NC(=O)[C@H](CCCCN)NC(=O)c3cc(NC(=O)[C@H](CCCNC(N)=O)NC(=O)c4cc(NC(=O)[C@@H](N)CCCCN)ccc4OC)ccc3OC)ccc2OC)cc1C(N)=O` [Compound 257], the EC50 in the assay with tinzaparin was 130 nM; in the assay with enoxaparin it was 205 nM; in the assay with fondaparinux, 1450 nM; in the assay with Unfractionated heparin, 1330 nM.

For the compound `COc1ccc(NC(=O)[C@H](CCCCN)NC(=O)c2cc(NC(=O)[C@H](CCCNC(N)=O)NC(=O)c3cc(NC(=O)[C@H](CCCCN)NC(=O)c4cc(NC(=O)[C@@H](N)CCCCN)ccc4OC)ccc3OC)ccc2OC)cc1C(N)=O` [Compound 258], the EC50 amounted to 132 nM in the assay with tinzaparin, 198 nM in the assay with enoxaparin, 1540 nM in the assay with fondaparinux and 1520 nM with Unfractionated heparin.

`COc1ccc(NC(=O)[C@H](CCCNC(N)=O)NC(=O)c2cc(NC(=O)[C@H](CCCCN)NC(=O)c3cc(NC(=O)[C@H](CCCCN)NC(=O)c4cc(NC(=O)[C@@H](N)CCCCN)ccc4OC)ccc3OC)ccc2OC)cc1C(N)=O` [Compound 259]: the EC50 stood at 180 nM in the assay on tinzaparin, 267 nM with enoxaparin, 2880 nM with fondaparinux and 1570 nM in the assay on Unfractionated heparin.

On to `COc1ccc(NC(=O)[C@H](CCCCN)NC(=O)c2cc(NC(=O)[C@H](CCCCN)NC(=O)c3cc(NC(=O)[C@H](CCCCN)NC(=O)c4cc(NC(=O)[C@@H](N)CCCCN)ccc4OC)ccc3OC)ccc2OC)cc1C(=O)NCC(=O)O` [Compound 260], for which the EC50 with tinzaparin is 247 nM and 215 nM; with enoxaparin, 399 nM and 284 nM; in the assay on fondaparinux it was 5080 nM and 3970 nM; with Unfractionated heparin, 1660 nM and 1410 nM.

For `COc1ccc(NC(=O)[C@H](CCCCN)NC(=O)c2cc(NC(=O)[C@H](CCCCN)NC(=O)c3cc(NC(=O)[C@H](CCCCN)NC(=O)c4cc(NC(=O)[C@@H](N)CCCCN)ccc4OC)ccc3OC)ccc2OC)cc1C(=O)N[C@@H](C)C(=O)O` [Compound 262], the EC50 in the assay on tinzaparin was 213 nM; in the assay on enoxaparin, 344 nM; in the assay with fondaparinux, 5570 nM; in the assay with Unfractionated heparin, 1260 nM.

For `COc1ccc(NC(=O)[C@H](CCCCN)NC(=O)c2cc(NC(=O)[C@@H](N)CCCCN)ccc2OC)cc1C(=O)N[C@@H](CCCCN)C(=O)Nc1ccc(OC)c(C(=O)N[C@@H](CCCCN)C(=O)Nc2ccc(OC)c(C(=O)N[C@H](Cc3ccccc3)C(=O)O)c2)c1` [Compound 264], the EC50 with tinzaparin was 365 nM; in the assay on enoxaparin, 731 nM; in the assay with fondaparinux, > 10000 nM; with Unfractionated heparin, 1380 nM.

With `COc1ccc(NC(=O)[C@H](CCCCN)NC(=O)c2cc(NC(=O)[C@@H](N)CCCCN)ccc2OC)cc1C(=O)N[C@@H](CCCCN)C(=O)Nc1ccc(OC)c(C(=O)N[C@@H](CCCCN)C(=O)Nc2ccc(OC)c(C(=O)N[C@H](C(=O)O)C(C)C)c2)c1` [Compound 267], the EC50 in the assay with tinzaparin came to 313 nM; with enoxaparin, 543 nM; in the assay on fondaparinux, 6990 nM; in the assay on Unfractionated heparin, 1670 nM.

In the case of `COc1ccc(NC(=O)[C@H](CCCCN)NC(=O)c2cc(NC(=O)[C@@H](N)CCCCN)ccc2OC)cc1C(=O)N[C@@H](CCCCN)C(=O)Nc1ccc(SC)c(C(=O)N[C@@H](CCCCN)C(=O)Nc2ccc(SC)c(C(N)=O)c2)c1` [Compound 268], the EC50 with tinzaparin was > 5000 nM; with enoxaparin it was > 5000 nM; in the assay with fondaparinux it was > 10000 nM; in the assay on Unfractionated heparin, > 10000 nM.

Consider `COc1ccc(NC(=O)[C@H](CCCCN)NC(=O)c2cc(NC(=O)[C@H](CCCCN)NC(=O)c3cc(NC(=O)[C@@H](N)CCCCN)ccc3OC)ccc2OC)cc1C(=O)N[C@@H](CCCCN)C(=O)Nc1ccc(OCC(=O)O)c(C(N)=O)c1` [Compound 269], for which the EC50 was determined as 165 nM in the assay on tinzaparin, 247 nM in the assay with enoxaparin, 5110 nM in the assay with fondaparinux and 1780 nM in the assay with Unfractionated heparin.

Take `COc1ccc(NC(=O)[C@H](CCCCN)NC(=O)c2cc(NC(=O)[C@H](CCCCN)NC(=O)c3cc(NC(=O)[C@H](CCCCN)NC(=O)c4cc(NC(=O)[C@@H](N)CCCCN)ccc4OC)ccc3OC)ccc2OCC(=O)O)cc1C(N)=O` [Compound 270]: the EC50 with tinzaparin is 349 nM; in the assay on enoxaparin it was 533 nM; in the assay with fondaparinux it was 4050 nM; with Unfractionated heparin, 1250 nM.

On to `COc1ccc(NC(=O)[C@H](CCCCN)NC(=O)c2cc(NC(=O)[C@H](CCCCN)NC(=O)c3cc(NC(=O)[C@H](CCCCN)NC(=O)c4cc(NC(=O)[C@@H](N)CCCCN)ccc4OC)ccc3OCC(=O)O)ccc2OC)cc1C(N)=O` [Compound 271], for which the EC50 amounted to 135 nM in the assay with tinzaparin, 219 nM in the assay with enoxaparin, 3120 nM with fondaparinux and 1640 nM with Unfractionated heparin.

For `COc1ccc(NC(=O)[C@H](CCCCN)NC(=O)c2cc(NC(=O)[C@H](CCCCN)NC(=O)c3cc(NC(=O)[C@H](CCCCN)NC(=O)c4cc(NC(=O)[C@@H](N)CCCCN)ccc4OCC(=O)O)ccc3OC)ccc2OC)cc1C(N)=O` [Compound 272], the EC50 in the assay on tinzaparin turned out to be 240 nM; with enoxaparin, 541 nM; in the assay on fondaparinux, 7690 nM; with Unfractionated heparin, 3090 nM.

On to `COc1ccc(NC(=O)[C@H](CCCCN)NC(=O)c2cc(NC(=O)[C@H](CCCCN)NC(=O)c3cc(NC(=O)[C@H](CCCCN)NC(=O)c4cc(NC(=O)[C@@H](N)CCCCN)ccc4OC)ccc3OC)ccc2OC)cc1C(=O)N[C@@H](CCCNC(N)=O)C(=O)O` [Compound 273], for which the EC50 came to 202 nM with tinzaparin, 319 nM in the assay with enoxaparin, 3800 nM with fondaparinux and 1550 nM with Unfractionated heparin.

Regarding `COc1ccc(NC(=O)[C@H](CCCCN)NC(=O)c2cc(NC(=O)[C@H](CCCCN)NC(=O)c3cc(NC(=O)[C@H](CCCCN)NC(=O)c4cc(NC(=O)[C@@H](N)CCCCN)ccc4OC)ccc3OC)ccc2OC)cc1C(=O)NCCCCCC(=O)O` [Compound 274], the EC50 with tinzaparin is 299 nM; in the assay with enoxaparin it was 558 nM; in the assay on fondaparinux, 7020 nM; in the assay with Unfractionated heparin, 1630 nM.

In the case of `COc1ccc(NC(=O)[C@H](CCCCN)NC(=O)c2cc(NC(=O)[C@H](CCCCN)NC(=O)c3cc(NC(=O)[C@H](CCCCN)NC(=O)c4cc(NC(=O)[C@@H](N)CCCCN)ccc4OC)ccc3OC)ccc2OC)cc1C(=O)N[C@@H](CCC(=O)O)C(=O)O` [Compound 276], the half-maximal effective concentration (EC50) was 363 nM with tinzaparin, 625 nM in the assay with enoxaparin, 5180 nM with fondaparinux and 2330 nM with Unfractionated heparin.

For the compound `COc1ccc(NC(=O)[C@H](CCCCN)NC(=O)c2cc(NC(=O)[C@@H](N)CCCCN)ccc2OC)cc1C(=O)N[C@@H](CCCCN)C(=O)Nc1ccc(OC)c(C(=O)N[C@@H](CCCCN)C(=O)Nc2ccc(OC)c(C(=O)N[C@H](C)C(=O)O)c2)c1` [Compound 277], the EC50 in the assay on tinzaparin worked out at 285 nM; in the assay on enoxaparin, 581 nM; in the assay on fondaparinux it was 10800 nM; with Unfractionated heparin it was 1550 nM.

For `COc1ccc(NC(=O)[C@@H](CCCNC(=N)N)NC(=O)c2cc(NC(=O)[C@@H](CCCNC(=N)N)NC(=O)c3cc(NC(=O)[C@@H](CCCNC(=N)N)NC(=O)c4cc(NC(=O)[C@H](N)CCCNC(=N)N)ccc4OC)ccc3OC)ccc2OC)cc1C(=O)NCCC(=O)O` [Compound 279], the EC50 in the assay on tinzaparin is 134 nM; with enoxaparin, 154 nM; with fondaparinux, 775 nM; with Unfractionated heparin, 1950 nM.

As for `COc1ccc(NC(=O)[C@H](N)CCCNC(=N)N)cc1C(=O)N[C@H](CCCNC(=N)N)C(=O)Nc1ccc(OC)c(C(=O)N[C@H](CCCNC(=N)N)C(=O)Nc2ccc(OC)c(C(=O)N[C@H](CCCNC(=N)N)C(=O)Nc3ccc(OCC(=O)O)c(C(N)=O)c3)c2)c1` [Compound 280], the EC50 amounted to 120 nM in the assay with tinzaparin, 133 nM with enoxaparin, 581 nM in the assay with fondaparinux and 1630 nM in the assay on Unfractionated heparin.

Regarding `COc1ccc(NC(=O)[C@@H](CCCNC(=N)N)NC(=O)c2cc(NC(=O)[C@@H](CCCNC(=N)N)NC(=O)c3cc(NC(=O)[C@@H](CCCNC(=N)N)NC(=O)c4cc(NC(=O)[C@H](N)CCCNC(=N)N)ccc4OC)ccc3OCC(=O)O)ccc2OC)cc1C(N)=O` [Compound 282], the EC50 in the assay with tinzaparin came to 114 nM; in the assay on enoxaparin, 121 nM; with fondaparinux, 424 nM; in the assay with Unfractionated heparin it was 2000 nM.
